Patent US10945612B2, “Assessing endothelial function using a blood pressure cuff” (The Regents of the University of California, priority 2014, dated 2021)
Entries after “also recorded” stand apart in the source; their conditions may differ.

Legend:
NO synthase = assay: Cuff single pulse waveforms after endothelial stimulation with NO synthase blocked by L-NAME; format: in vivo, human; details: cuff inflated to 70 mm Hg; NO synthase blocked via L-NAME
Text: Both the amplitude and slope of the rising edge of the pulse increase markedly after endothelial stimulation.
In an artery with intact endothelial function, both pulse height (maximal cross-sectional arterial area) and compliance (maximum slope of the rising edge) increase markedly over baseline. […] FIG. 4 illustrates how a five minute cuff occlusion and the ensuring reactive hyperemia lead to major increases in area change per pulse and the maximum derivative of the area per pulse. Both metrics return to baseline levels after 20 minutes. FIG. 5 confirms the repeatability of the protocol by illustrating the effects of a series of two cuff occlusion periods. We see from FIG. 6 that only a small slow drift in the measured quantities occurs when no reactive hyperemic stimulus is applied.

smooth muscle = details: 400 μg sublingual dose; Feldman et al. (1979), Adams et al. (1998); cited from earlier work
brachial artery = assay: Cuff-based measurement of vasodilation (pulse amplitude relative to baseline) after sublingual nitroglycerin; format: in vivo, human
Protocol: Three individuals in the age-range of 28-38 were examined. All subjects had Framingham risk scores of 1% or less, and had no history of cardiovascular disease. Each individual was assessed at least three times before and after RH induced by five minutes of suprasystolic cuff occlusion. At least one additional measurement was made using the same protocol, except without cuff inflation. Sensitivity to a 0.4 mg dose of sublingual NG was assessed three times in two individuals.
Sensitivity to a 0.4 mg dose of sublingual NG was assessed three times in two individuals. In the analysis that follows, all of the datasets are pooled by stimulus. This addresses the question: Can the method measure changes in arterial tone due to vasorelaxatory stimuli and with what sensitivity?
A single quantity relating to the recorded pressure data, the pulse amplitude, was studied and it was posited that this is proportional to the arterial area. During the post stimulus interval, pressure data from the cuff were recorded approximately every 80 seconds, for a period of 30 seconds. During each recording interval, the cuff was inflated to 70 mm Hg, which was always below the measured diastolic pressure of the subject. To quantify the observed response, the mean of the pulse quantity (in this case, amplitude) during the response interval was divided by the mean value of the same quantity during the baseline interval. FIG. 10 illustrates the results.
v) The stimulus is applied. This is either 1-5 min of cuff occlusion to suprasystolic pressure Ps (for studies of endothelial function) or a dose of sublingual NG (for studies of endothelium-independent vasodilation).
(vi) After Tp=45 s have elapsed following cuff release or drug administration, a series of up to Nr=10 repeat measurement intervals ensue. In each interval, the cuff is inflated to Pm for Tm seconds, after which it is deflated for Tw seconds. This large number of repeat measurements (Nr)) is required only when one wishes to record the return of the vessel toward baseline.
[formula] and reported, e.g., to the user. […]

| Structure (SMILES) | compliance (maximum slope of the rising edge) increase over baseline after endothelial stimulation (NO synthase) | pulse height (maximal cross-sectional arterial area) increase over baseline after endothelial stimulation (NO synthase) | smooth muscle dilation (smooth muscle) | cDmax % (brachial artery; 400 μg sublingual NG, maximal vasodilation by the cuff-based method, relative to baseline) [%] | Mean ± SEM of maximum response over all data sets (dilation response) (brachial artery; 400 μg sublingual NG, ratio to baseline, pooled data sets) | Mean ± SEM of maximum Response over all data sets (amplitude response) (brachial artery; 0.4 mg sublingual NG, mean pulse amplitude in response interval divided by baseline, cuff at 70 mm Hg, pooled data sets) |
| --- | --- | --- | --- | --- | --- | --- |
| COC(=O)[C@@H](N)CCCNC(=N)N[N+](=O)[O-] [L-NAME] | greatly attenuates this response; also recorded: greatly attenuated | greatly attenuates this response; also recorded: greatly attenuated |  |  |  |  |
| O=[N+]([O-])OCC(CO[N+](=O)[O-])O[N+](=O)[O-] [NG, nitroglycerin] |  |  | maximal smooth muscle dilation | 70 | 1.70 ± 0.036 | 1.70 ± 0.036 |
